Source: patent US5837862A, “Sialyl Lewis X mimetics incorporating mannopeptides” (The Scripps Research Institute, priority 1996, dated 1998)

Columns and labels:
E-selectin = molecular target: T1, E-selectin (Homo sapiens, UniProt P16581); assay: E-selectin inhibition assay (Weitz-Schmidt et al.); assay type: binding
T1 sequence (P16581 22-610): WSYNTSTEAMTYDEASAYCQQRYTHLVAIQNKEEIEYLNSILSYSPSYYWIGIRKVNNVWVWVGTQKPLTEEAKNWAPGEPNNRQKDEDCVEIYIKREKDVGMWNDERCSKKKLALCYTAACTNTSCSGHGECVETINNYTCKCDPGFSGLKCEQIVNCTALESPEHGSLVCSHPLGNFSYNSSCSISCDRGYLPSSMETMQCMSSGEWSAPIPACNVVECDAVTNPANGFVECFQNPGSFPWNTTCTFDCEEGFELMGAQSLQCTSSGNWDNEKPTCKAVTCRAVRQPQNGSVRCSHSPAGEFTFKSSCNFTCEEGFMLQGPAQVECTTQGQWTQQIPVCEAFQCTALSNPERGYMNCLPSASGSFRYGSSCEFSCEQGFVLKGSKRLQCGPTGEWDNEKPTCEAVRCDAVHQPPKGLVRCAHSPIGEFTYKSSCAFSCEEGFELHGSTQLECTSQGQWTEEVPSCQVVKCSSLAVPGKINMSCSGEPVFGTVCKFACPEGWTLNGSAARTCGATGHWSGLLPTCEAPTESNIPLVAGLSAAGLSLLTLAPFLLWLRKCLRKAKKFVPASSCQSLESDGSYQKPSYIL

L-selectin = molecular target: T2, L-selectin (Homo sapiens, UniProt P14151); assay: L-selectin inhibition assay; assay type: binding; settings: at 3 mM
T2 sequence (P14151 39-372): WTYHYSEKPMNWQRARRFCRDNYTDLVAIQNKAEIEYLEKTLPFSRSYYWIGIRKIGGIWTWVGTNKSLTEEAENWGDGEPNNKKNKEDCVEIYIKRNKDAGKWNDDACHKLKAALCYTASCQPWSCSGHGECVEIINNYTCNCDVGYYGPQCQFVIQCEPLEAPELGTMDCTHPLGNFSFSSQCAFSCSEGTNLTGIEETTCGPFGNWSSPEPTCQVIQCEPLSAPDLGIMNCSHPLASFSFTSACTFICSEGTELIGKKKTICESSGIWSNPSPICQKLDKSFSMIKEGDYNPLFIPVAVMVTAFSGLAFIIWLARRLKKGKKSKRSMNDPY

P-selectin = molecular target: T3, P-selectin (Homo sapiens, UniProt P16109); assay: P-selectin inhibition assay; assay type: binding; settings: at 3 mM
T3 sequence (P16109 42-830): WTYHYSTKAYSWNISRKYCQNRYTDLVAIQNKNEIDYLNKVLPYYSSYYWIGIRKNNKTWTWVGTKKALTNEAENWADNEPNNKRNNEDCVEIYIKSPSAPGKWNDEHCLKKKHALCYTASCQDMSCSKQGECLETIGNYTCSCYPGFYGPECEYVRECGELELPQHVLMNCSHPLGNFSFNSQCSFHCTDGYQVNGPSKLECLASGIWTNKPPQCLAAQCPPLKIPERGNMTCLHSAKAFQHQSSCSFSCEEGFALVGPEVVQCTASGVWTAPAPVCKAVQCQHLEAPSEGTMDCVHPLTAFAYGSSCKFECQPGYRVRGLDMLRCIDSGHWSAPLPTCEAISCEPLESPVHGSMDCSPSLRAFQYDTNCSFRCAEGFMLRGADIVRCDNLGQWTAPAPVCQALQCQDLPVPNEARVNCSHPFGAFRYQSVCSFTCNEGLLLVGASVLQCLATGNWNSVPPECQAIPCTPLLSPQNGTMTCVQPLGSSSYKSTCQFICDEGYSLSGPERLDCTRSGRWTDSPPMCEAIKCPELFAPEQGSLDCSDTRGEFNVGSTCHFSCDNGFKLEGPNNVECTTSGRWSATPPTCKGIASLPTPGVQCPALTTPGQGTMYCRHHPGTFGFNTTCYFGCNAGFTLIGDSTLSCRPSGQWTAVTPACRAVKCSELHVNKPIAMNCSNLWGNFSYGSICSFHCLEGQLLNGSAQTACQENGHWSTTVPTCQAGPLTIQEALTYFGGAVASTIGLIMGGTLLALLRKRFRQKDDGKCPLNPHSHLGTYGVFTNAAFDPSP

lung injury in rats = settings: cited from earlier work
glycosidase = settings: because of glycosidase reductions; cited from earlier work
[1] = in vivo; cited from earlier work

Row | Compound | IC50 (E-selectin) | activity relative to SLex (E-selectin; versus SLex) | inhibition of L-selectin (L-selectin) | inhibition of P-selectin (P-selectin) | effective intravenous concentration (lung injury in rats; rat, intravenous infusion of up to 200 μg, calculated) | effect on lung injury (lung injury in rats; rat, intravenous infusion of up to 200 μg, cobra venom) | IC50 (lung injury in rats; rats, read-out: IC50 value in vivo for protecting against lung injury) | stability in the blood stream (glycosidase) | oral activity [1]
1 | O=C(O)CNC(=O)[C@@H](O)[C@H](O)C[C@H]1O[C@H](CO)[C@@H](O)[C@H](O)[C@@H]1O [Mimetic 5, (2S,3R)-N-Carboxylmethyl-2,3-dihydroxy-4-(α-D -mannopyranosyl)-butyramide] | 160 µM | 3 fold | does not inhibit | does not inhibit | – | – | – | – | –
2 | NeuAcα2→3Galβ1→4(Fucα1→3)GlcNAc [SLex] | – | – | – | – | less than 1 μM | dramatically reduced lung injury | ~1 µM | unstable in the blood stream | orally inactive
